In US20220194938A1, “NOVEL COMPOUNDS AND PHARMACEUTICAL COMPOSITIONS THEREOF FOR THE TREATMENT OF INFLAMMATORY DISORDERS” (GALAPAGOS NV, priority 2019, published 2022):

Molecular target: T1, hERG channel (Homo sapiens, UniProt Q12809)
T1 construct: host or cells: HEK293
Assay: hERG channel test - manual patch clamp assay
Assay type: cell-based
Conditions: HEK293 cells stably transfected with hERG, tail current
Experimental: 4.7 hERG Channel Test—Manual Patch Clamp Assay
The aim of this assay is to determine the in-vitro effects of a test compound on hERG current ([…]) expressed in Human Embryonic Kidney (HEK) cells (evaluation of the blocking profile of test substance on the IKr-like potassium current mediated by hERG channel stably transfected in a human cell line), which is linked to cardiac safety.
The test substance is dissolved in pure dimethylsulfoxide (DMSO) by cold stirring to give a stock solution concentrated 333-fold as compared with the highest concentration to be tested. This stock solution is used to prepare the other stock solutions in DMSO. Each stock solution is used to prepare the solutions containing the final concentrations tested by dilution in extracellular solution (0.1, 1, 10 and 100 μM). Final concentration of DMSO should not not exceed 0.3%.
All formulations are prepared in glass containers.
If a slight opalescence persists at the highest concentration, a 50 μM (instead of 100 μM) concentration is tested.
DMSO diluted in extracellular solution (at the different concentrations used in the final test substance solutions) is used as vehicle.
The extracellular solution is constituted as follows (mM): K-gluconate: 4 mM/Na-gluconate: 145 mM/Mg-gluconate: 2 mM/Ca-gluconate: 3.5 mM/HEPES: 5 mM/glucose: 5 mM/mannitol: 20 mM. The pH is adjusted with NaOH to 7.40±0.05.
Human embryonic kidney (HEK293) cells are stably transfected with the hERG clone (Creacell) and are maintained at 37° C. in a 5% CO2/95% air incubator. Cells used for the study are transferred to an experimental chamber of approximately 2 mL which is maintained at a temperature of 35±0.5° C. by a thermoelectric device (Harvard Apparatus: Type TC-344B) and mounted on the platform of an inverted microscope (Olympus: Type IX-51 or Leica DMI3000 B). Cells are continuously superfused with Tyrode's solution constituted as follows (mM): NaCl: 145/KCl: 4/HEPES: 5/glucose: 5/CaCl2:1/MgCl2: 1.
Ionic currents from hERG-transfected cells are measured using the whole cell configuration of the patch clamp technique. Glass pipettes are pulled from borosilicate glass by a vertical puller (Sutter Instruments: Type P30). Pipette tip resistance is approximately 1.5 to 3.5 MΩ when filled with internal solution constituted as follows (mM): K-gluconate: 145/Mg-gluconate: 1/EGTA: 2/HEPES:5/K2ATP: 2.
The pipettes are connected to the input stage of a patch-clamp amplifier (Axon Instruments: Multiclamp 700B-1). Stimulation, data recording and analysis are performed using specialized Axon Instruments software (pClamp 9.2.0. or pClamp 10.3.0.2).
After rupture of the cell membrane (entering whole-cell mode), cells are stimulated every 10 seconds using the following protocol: 500 ms pulse to +10 mV from a holding potential of −80 mV followed by a 500 ms pulse to −40 mV during which tail current is measured.
Once the current under control conditions is stable, recordings are taken before (control) and after addition of the test substance. The effect of the test substance on tail current is monitored continuously until steady-state is reached. The peak tail current amplitude is averaged for 3 stimuli.
The following parameters are measured: • Cell capacitance (pF). • Peak tail current amplitude (pA).
Peak tail current measurements are normalized using the cell capacitance as an index of cell surface.
The cells will be considered as valid if cell capacitance <80 pF, access resistance <20 MΩ and holding current >−200 pA.
Results are expressed as absolute values and as percentage change from control (percentage of tail current inhibition).
The test substance is studied at 4 ascending concentrations on 3 hERG-transfected cells.
The concentration of test substance inducing 50% of inhibition (IC50) of tail current is determined, if possible, from each individual concentration-response curve. The equation is of the following form: […]

T1 sequence (Q12809 whole entry): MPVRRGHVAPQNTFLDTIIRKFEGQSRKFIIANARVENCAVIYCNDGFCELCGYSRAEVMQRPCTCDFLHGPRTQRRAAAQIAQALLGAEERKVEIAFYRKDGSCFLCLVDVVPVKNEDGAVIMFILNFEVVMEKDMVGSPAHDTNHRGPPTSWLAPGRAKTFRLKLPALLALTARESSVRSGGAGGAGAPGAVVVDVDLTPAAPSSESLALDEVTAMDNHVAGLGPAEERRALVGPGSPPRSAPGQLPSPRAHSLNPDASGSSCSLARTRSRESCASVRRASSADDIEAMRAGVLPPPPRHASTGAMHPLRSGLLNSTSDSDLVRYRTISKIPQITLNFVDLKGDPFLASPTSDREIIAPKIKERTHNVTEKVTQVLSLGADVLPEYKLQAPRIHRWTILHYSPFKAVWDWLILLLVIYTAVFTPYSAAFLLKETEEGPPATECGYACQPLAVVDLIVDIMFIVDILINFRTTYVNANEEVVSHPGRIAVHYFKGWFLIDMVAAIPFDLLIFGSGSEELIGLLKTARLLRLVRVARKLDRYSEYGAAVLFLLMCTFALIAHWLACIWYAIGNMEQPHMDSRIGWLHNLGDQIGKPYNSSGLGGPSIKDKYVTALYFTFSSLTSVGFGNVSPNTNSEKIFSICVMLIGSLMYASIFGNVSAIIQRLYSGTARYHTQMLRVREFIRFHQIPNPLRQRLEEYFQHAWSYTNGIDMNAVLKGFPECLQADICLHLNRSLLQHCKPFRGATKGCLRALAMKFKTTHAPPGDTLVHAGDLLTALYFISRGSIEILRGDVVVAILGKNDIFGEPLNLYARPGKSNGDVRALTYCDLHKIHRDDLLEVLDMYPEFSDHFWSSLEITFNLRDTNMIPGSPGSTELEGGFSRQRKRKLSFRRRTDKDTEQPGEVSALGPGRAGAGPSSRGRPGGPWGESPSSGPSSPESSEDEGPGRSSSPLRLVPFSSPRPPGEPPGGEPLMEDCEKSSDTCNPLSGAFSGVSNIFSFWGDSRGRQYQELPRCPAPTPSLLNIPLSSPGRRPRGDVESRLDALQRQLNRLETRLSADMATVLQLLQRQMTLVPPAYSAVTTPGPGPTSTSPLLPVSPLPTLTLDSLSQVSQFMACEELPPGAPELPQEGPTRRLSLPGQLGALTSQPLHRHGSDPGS

Row | SMILES | hERG Manual Patch Clamp Single dose PIN (10 μM) | IC50
1 | CNC(=O)c1cc2nc(CCC(C)(C)O)cn2cc1NC(=O)c1cccc(C(F)(F)F)n1 [Compound 2, 2-(3-hydroxy-3-methyl-butyl)-N-methyl-6-[[6-(trifluoromethyl)pyridine-2-carbonyl]amino]imidazo[1,2-a]pyridine-7-carboxamide] | −44.7% | 19.2 µM
2 | COc1cc2nc(CCC(C)(C)O)cn2cc1NC(=O)c1cccn(C2CC2)c1=O [Compound 5, 1-cyclopropyl-N-[2-(3-hydroxy-3-methyl-butyl)-7-methoxy-imidazo[1,2-a]pyridin-6-yl]-2-oxo-pyridine-3-carboxamide] | −25% | –
3 | COc1cc2nc(CCC(C)(C)O)cn2cc1NC(=O)c1cccn(C(F)F)c1=O [Compound 12, 1-(difluoromethyl)-N-[2-(3-hydroxy-3-methyl-butyl)-7-methoxy-imidazo[1,2-a]pyridin-6-yl]-2-oxo-pyridine-3-carboxamide] | −76.3% | 3.05 µM
4 | CC(C)(O)CCc1cn2cc(NC(=O)c3cccc(C(F)(F)F)n3)c(C(N)=O)cc2n1 [Compound 31, 2-(3-hydroxy-3-methyl-butyl)-6-[[6-(trifluoromethyl)pyridine-2-carbonyl]amino]imidazo[1,2-a]pyridine-7-carboxamide] | −46.7% | 16.3 µM
5 | CCOc1c(NC(=O)c2cccn(C3CC3)c2=O)cn2cc(CCC(C)(C)O)nc2c1F [Compound 37, 1-cyclopropyl-N-[7-ethoxy-8-fluoro-2-(3-hydroxy-3-methyl-butyl)imidazo[1,2-a]pyridin-6-yl]-2-oxo-pyridine-3-carboxamide] | −56.3% | 6.99 µM
6 | CCOc1c(NC(=O)c2cccn(C)c2=O)cn2cc(CCC(C)(C)O)nc2c1F [Compound 38, N-[7-ethoxy-8-fluoro-2-(3-hydroxy-3-methyl-butyl)imidazo[1,2-a]pyridin-6-yl]-1-methyl-2-oxo-pyridine-3-carboxamide] | −30.0% | –
7 | CCOc1c(NC(=O)c2cccn(C3CC3)c2=O)cn2cc(CCS(C)(=O)=O)nc2c1F [Compound 39, 1-cyclopropyl-N-[7-ethoxy-8-fluoro-2-(2-methylsulfonylethyl)imidazo[1,2-a]pyridin-6-yl]-2-oxo-pyridine-3-carboxamide] | −39.7% | > 10 µM
8 | COc1c(NC(=O)c2cccn(C3CC3)c2=O)cn2cc(CCC(C)(C)O)nc2c1F [Compound 42, 1-cyclopropyl-N-[8-fluoro-2-(3-hydroxy-3-methyl-butyl)-7-methoxy-imidazo[1,2-a]pyridin-6-yl]-2-oxo-pyridine-3-carboxamide] | −12% | > 92.3 µM
9 | CC(C)(O)CCc1cn2cc(NC(=O)c3cccc(C(F)(F)F)n3)c(C(=O)NCC(F)F)cc2n1 [Compound 48, N-(2,2-difluoroethyl)-2-(3-hydroxy-3-methylbutyl)-6-(6-(trifluoromethyl)picolinamido)imidazo[1,2-a]pyridine-7-carboxamide] | −20.5% | –
10 | CCNC(=O)c1cc2nc(CCC(C)(C)O)cn2cc1NC(=O)c1cccc(C(F)(F)F)n1 [Compound 49, N-ethyl-2-(3-hydroxy-3-methylbutyl)-6-(6-(trifluoromethyl)picolinamido)imidazo[1,2-a]pyridine-7-carboxamide] | −17% | –
